From patent publication US9957264B2 (Merck Sharp & Dohme Corp., priority 2013, dated 2018)

Key:
[1] = biological target: JAK1 (recombinant purified GST-tagged catalytic domain) (Homo sapiens (Human), UniProt P23458); test: Jak Biochemical HTRF Assay (JAK1); conditions: [ATP] 31.8 μM
Summary of the method: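 HTRF kinase format: compounds pre-equilibrated with recombinant GST-tagged JAK1 or JAK2 catalytic domain, then ATP started a 120 min room-temperature reaction on a common peptide substrate. Phosphopeptide detected via Eu-pY20/streptavidin-Dylight 650 after EDTA quench; percent inhibition versus log concentration fitted (4-parameter) to give IC50.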

[2] = biological target: JAK2 (recombinant purified GST-tagged catalytic domain) (Homo sapiens (Human), UniProt O60674); test: Jak Biochemical HTRF Assay (JAK2); conditions: [ATP] 8.5 μM
Chain of JAK2 (recombinant purified GST-tagged catalytic domain) (O60674 849-1124): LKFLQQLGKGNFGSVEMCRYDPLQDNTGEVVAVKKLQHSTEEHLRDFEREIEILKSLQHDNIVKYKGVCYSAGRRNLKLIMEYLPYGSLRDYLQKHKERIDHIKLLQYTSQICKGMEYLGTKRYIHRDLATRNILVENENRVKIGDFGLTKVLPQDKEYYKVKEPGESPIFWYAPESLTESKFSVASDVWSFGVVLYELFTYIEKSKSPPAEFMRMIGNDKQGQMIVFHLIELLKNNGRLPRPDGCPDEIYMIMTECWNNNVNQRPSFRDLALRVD

Chain of JAK1 (recombinant purified GST-tagged catalytic domain) (P23458 875-1153): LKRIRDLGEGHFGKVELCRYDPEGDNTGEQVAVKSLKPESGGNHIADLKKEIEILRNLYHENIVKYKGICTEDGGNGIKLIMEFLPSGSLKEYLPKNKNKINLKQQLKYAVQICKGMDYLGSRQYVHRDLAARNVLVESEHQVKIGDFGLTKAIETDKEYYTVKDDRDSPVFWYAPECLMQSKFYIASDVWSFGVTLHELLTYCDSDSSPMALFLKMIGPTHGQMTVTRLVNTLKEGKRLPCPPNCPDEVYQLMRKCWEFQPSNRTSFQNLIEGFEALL

Row | IC50 [1] [nM] | IC50 [2] [nM] | SMILES
1 | 0.71 | 0.64 | CC(C)(C)OC(=O)N1CCC(CC#N)(n2nc(Nc3ccc([C@]4(C(F)(F)F)CCCCN4)cc3)c3c(=O)[nH]ccc32)CC1 (single isomer, unassigned) [Example 21-16, (S or R)-tert-butyl 4-(cyanomethyl)-4-(4-oxo-3-(4-(2-(trifluoromethyl)piperidin-2-yl)phenylamino)-4,5-dihydropyrazolo[4,3-c]pyridin-1-yl)piperidine-1-carboxylate]
2 | 208 | > 1480 | CCNc1nn(C2(CC#N)CN(C(=O)OC(C)(C)C)C2)c2cc[nH]c(=O)c12 [Example 2-4, tert-butyl 3-(cyanomethyl)-3-[3-(ethylamino)-4-oxo-4,5-dihydro-1H-pyrazolo [4,3-c]pyridin-1-yl] azetidine-1-carboxylate]
3 | 0.45 | 11.9 | CC(C)(C)OC(=O)N1CCC(CC#N)(n2nc(Nc3ccccc3)c3c(=O)[nH]ccc32)CC1 [Example 1-2, tert-butyl 4-(cyanomethyl)-4-(4-oxo-3-(phenylamino)-4,5-dihydro-1H-pyrazolo[4,3-c]pyridin-1-yl)piperidine-1-carboxylate]
4 | 0.1 | 0.12 | CN(C)S(=O)(=O)c1ccc(Nc2nn([C@@]3(CC#N)CCN(C(=O)OC(C)(C)C)C[C@H]3F)c3cc[nH]c(=O)c23)cc1 [Example 5-18, tert-butyl (3R,4R)-4-(cyanomethyl)-4-(3-{[4-(dimethylsulfamoyl)phenyl]amino}-4-oxo-4,5-dihydro-1H-pyrazolo [4,3-c]pyridin-1-yl)-3-fluoropiperidine-1-carboxylate]
5 | 0.13 | 0.87 | COC(=O)[C@@H]1CC[C@@](CC#N)(n2nc(Nc3ccc(S(C)(=O)=O)cc3)c3c(=O)[nH]ccc32)CO1 (racemic) [Example 5-32, (2S,5S and 2R,5R)-methyl 5-(cyanomethyl)-5-(3-((4-(methylsulfonyl)phenyl)amino)-4-oxo-4,5-dihydro-1H-pyrazolo[4,3-c]pyridin-1-yl)tetrahydro-2H-pyran-2-carboxylate]
6 | 0.27 | 1.45 | CN(C)S(=O)(=O)c1ccc(Nc2nn(C3(CC#N)CCN(C(=O)OC4CCSCC4)CC3)c3cc[nH]c(=O)c23)cc1 [Example 11-4, tetrahydro-2H-thiopyran-4-yl 4-(cyanomethyl)-4-(3-((4-(N,N-dimethylsulfamoyl)phenyl)amino)-4-oxo-4,5-dihydro-1H-pyrazolo[4,3-c]pyridin-1-yl)piperidine-1-carboxylate]
7 | 0.13 | 0.64 | CN(C)c1ccc2cc(Nc3nn([C@]4(CC#N)CC[C@@H](C(=O)OC(C)(C)C)OC4)c4cc[nH]c(=O)c34)ccc2n1 [Example 5-222, (2S,5S)-tert-butyl 5-(cyanomethyl)-5-(3-((2-(dimethylamino)quinolin-6-yl)amino)-4-oxo-4,5-dihydro-1H-pyrazolo[4,3-c]pyridin-1-yl)tetrahydro-2H-pyran-2-carboxylate]
8 | 2.76 | 12.9 | CC(C)OC(=O)C(C)(C)C(O)(c1ccc(Nc2nn([C@]3(CC#N)CC[C@@H](C(=O)OC(C)(C)C)OC3)c3cc[nH]c(=O)c23)cc1)C(F)(F)F (single isomer, unassigned) [Example 5-162, (2S,5S)-tert-butyl 5-(cyanomethyl)-5-(4-oxo-3-((4-((S or R)-1,1,1-trifluoro-2-hydroxy-4-isopropoxy-3,3-dimethyl-4-oxobutan-2-yl)phenyl)amino)-4,5-dihydro-1H-pyrazolo[4,3-c]pyridin-1-yl)tetrahydro-2H-pyran-2-carboxylate]
9 | 0.32 | 0.35 | CC(C)NC(c1ccc(Nc2nn([C@]3(CC#N)CC[C@@H](C(=O)OC(C)(C)C)OC3)c3cc[nH]c(=O)c23)cc1)C(F)(F)F (single isomer, unassigned) [Example 5-209, (2S,5S)-tert-butyl 5-(cyanomethyl)-5-(4-oxo-3-((4-((R or S)-2,2,2-trifluoro-1-(isopropylamino)ethyl)phenyl)amino)-4,5-dihydro-1H-pyrazolo [4,3-c]pyridin-1-yl)tetrahydro-2H-pyran-2-carboxylate]
10 | 0.37 | 36.6 | N#CC[C@]1(n2nc(Nc3ccc(OC(F)(F)F)cc3)c3c(=O)[nH]ccc32)CC[C@H](NC2CCCCC2)CC1 [Example 18-19, Trans 2-(4-(cyclohexylamino)-1-(4-oxo-3-((4-(trifluoromethoxy)phenyl)amino)-4,5-dihydro-1H-pyrazolo[4,3-c]pyridin-1-yl)cyclohexyl)acetonitrile]
11 | 0.46 | 1.56 | N#CCC1(n2nc(Nc3ccc(C(N)C(F)(F)F)cc3)c3c(=O)[nH]ccc32)CCCC1 (single isomer, unassigned) [Example 5-88, (R or S)-2-(1-(3-((4-(1-amino-2,2,2-trifluoroethyl)phenyl)amino)-4-oxo-4,5-dihydro-1H-pyrazolo[4,3-c]pyridin-1-yl)cyclopentyl)acetonitrile]
12 | 0.08 | 0.33 | CN(C)S(=O)(=O)c1ccc(Nc2nn(C3(CC#N)CCN(C(=O)CCC(F)(F)F)CC3)c3cc[nH]c(=O)c23)cc1 [Example 9-21, 4-({1-[4-(cyanomethyl)-1-(4,4,4-trifluorobutanoyl)piperidin-4-yl]-4-oxo-4,5-dihydro-1H-pyrazolo[4,3-c]pyridin-3-yl}amino)-N,N-dimethylbenzenesulfonamide]
13 | 0.04 | 0.06 | CC(C)(C)N1Cc2cc(Nc3nn([C@]4(CC#N)CCOC[C@@H]4F)c4cc[nH]c(=O)c34)ccc2S1(=O)=O (single isomer, unassigned) [Example 5-256, 2-((3R,4R or 3S,4S)-4-(3-((2-(tert-butyl)-1,1-dioxido-2,3-dihydrobenzo[d]isothiazol-5-yl)amino)-4-oxo-4,5-dihydro-1H-pyrazolo[4,3-c]pyridin-1-yl)-3-fluorotetrahydro-2H-pyran-4-yl)acetonitrile]
14 | 0.41 | 1.37 | CC(OC(=O)N1CCC(CC#N)(n2nc(Nc3ccc(S(=O)(=O)N(C)C)cc3)c3c(=O)[nH]ccc32)CC1)c1ccccn1 (centres unmarked) [Example 11-9, 1-(pyridin-2-yl)ethyl 4-(cyanomethyl)-4-(3-((4-(N,N-dimethylsulfamoyl)phenyl)amino)-4-oxo-4,5-dihydro-1H-pyrazolo[4,3-c]pyridin-1-yl)piperidine-1-carboxylate]
15 | 0.08 | 1.94 | CC(C)(C)NC(=O)[C@@H]1CC[C@@](CC#N)(n2nc(Nc3ccc4c(c3)CN(C(C)(C)C)S4(=O)=O)c3c(=O)[nH]ccc32)CO1 [Example 19-1, (2S,5S)-N-(tert-butyl)-5-(3-((2-(tert-butyl)-1,1-dioxido-2,3-dihydrobenzo[d]isothiazol-5-yl)amino)-4-oxo-4,5-dihydro-1H-pyrazolo[4,3-c]pyridin-1-yl)-5-(cyanomethyl)tetrahydro-2H-pyran-2-carboxamide]
16 | 0.15 | 1.43 | COC1CN([C@H]2CC[C@](CC#N)(n3nc(Nc4ccc(OC(F)(F)F)cc4)c4c(=O)[nH]ccc43)CC2)C1 [Example 18-16, Trans 2-(4-(3-methoxyazetidin-1-yl)-1-(4-oxo-3-((4-(trifluoromethoxy)phenyl)amino)-4,5-dihydro-1H-pyrazolo[4,3-c]pyridin-1-yl)cyclohexyl)acetonitrile]
